Assay results published in patent US9278962B2 (Cytokinetics, Inc., priority 2011, dated 2016).

System: rabbit skeletal myofibrils (approximately 90% fast fibers)
Experiment: Activation of fast skeletal myofibrils (PUMA coupled-enzyme ATPase assay, AC1.4)
Format: biochemical
Settings: Table 2; concentration at which the compound increased enzymatic activity by 40%; calcium at pCa25

Question: With `Cc1ccc(Cc2nsc(NCCc3cccc(Cl)c3)n2)cc1` [[2-(3-chlorophenyl)ethyl]{3-[(4-methylphenyl)methyl](1,2,4-thiadiazol-5-yl)}amine] as the compound, how does the “Mean AC1.4” value read?
Answer: Its value is “B (B=1-10 uM)”.

Question: For `COc1cccc(Cc2nsc(NCCc3cccc(F)c3)n2)c1` [[2-(3-fluorophenyl)ethyl]{3-[(3-methoxyphenyl)methyl](1,2,4-thiadiazol-5-yl)}amine], which “Mean AC1.4” value is on record?
Answer: Its value is “C (C=10-20 uM)”.

Question: With `Nc1ccc(CCNc2nc(Cc3ccc(F)cc3)ns2)cc1` [[2-(4-aminophenyl)ethyl]{3-[(4-fluorophenyl)methyl](1,2,4-thiadiazol-5-yl)}amine] as the compound, how does the “Mean AC1.4” value read?
Answer: Its value is “D (D=>20 uM)”.

Question: Which “Mean AC1.4” value does the source give for `CC(C)Cc1nsc(NCC(C)(C)c2ccc(Cl)cc2)n1` [[2-(4-chlorophenyl)-2-methylpropyl][3-(2-methylpropyl)(1,2,4-thiadiazol-5-yl)]amine] here?
Answer: The value was “B (B=1-10 uM)”.

Question: How did the “Mean AC1.4” value turn out when `COc1cccc(Cc2nsc(NCC(C)(C)c3ccc(Cl)cc3)n2)c1` [[2-(4-chlorophenyl)-2-methylpropyl]{3-[(3-methoxyphenyl)methyl](1,2,4-thiadiazol-5-yl)}amine] was run?
Answer: The value was “A (A=<1 uM)”.

Question: `CC(C)(CNc1nc(Cc2ccc(F)cc2)ns1)c1ccc(Cl)cc1` [[2-(4-chlorophenyl)-2-methylpropyl]{3-[(4-fluorophenyl)methyl](1,2,4-thiadiazol-5-yl)}amine] was tested. Which “Mean AC1.4” value did it give?
Answer: Its value is “A (A=<1 uM)”.

Question: `COc1ccc(Cc2nsc(NCC(C)(C)c3ccc(Cl)cc3)n2)cc1` [[2-(4-chlorophenyl)-2-methylpropyl]{3-[(4-methoxyphenyl)methyl](1,2,4-thiadiazol-5-yl)}amine] was tested. Which “Mean AC1.4” value did it give?
Answer: The value was “A (A=<1 uM)”.

Question: How did the “Mean AC1.4” value turn out when `CC(Cc1ccc(Cl)cc1)Nc1nc(Cc2ccc(F)cc2)ns1` (stereo not drawn) [[2-(4-chlorophenyl)-isopropyl]{3-[(4-fluorophenyl)methyl](1,2,4-thiadiazol-5-yl)}amine] was run?
Answer: Its value is “D (D=>20 uM)”.

Question: How did the “Mean AC1.4” value turn out when `COc1cccc(Cc2nsc(NCCc3ccc(Cl)cc3)n2)c1` [[2-(4-chlorophenyl)ethyl]{3-[(3-methoxyphenyl)methyl](1,2,4-thiadiazol-5-yl)}amine] was run?
Answer: Its value is “B (B=1-10 uM)”.

Question: Which “Mean AC1.4” value does the source give for `Clc1ccc(CCNc2nc(Cc3ccc(Cl)cc3)ns2)cc1` [[2-(4-chlorophenyl)ethyl]{3-[(4-chlorophenyl)methyl](1,2,4-thiadiazol-5-yl)}amine] here?
Answer: The value was “C (C=10-20 uM)”.

Question: Which “Mean AC1.4” value does the source give for `Fc1ccc(Cc2nsc(NCCc3ccc(Cl)cc3)n2)cc1` [[2-(4-chlorophenyl)ethyl]{3-[(4-fluorophenyl)methyl](1,2,4-thiadiazol-5-yl)}amine] here?
Answer: Its value is “B (B=1-10 uM)”.

Question: For `Cc1ccc(Cc2nsc(NCCc3ccc(Cl)cc3)n2)cc1` [[2-(4-chlorophenyl)ethyl]{3-[(4-methylphenyl)methyl](1,2,4-thiadiazol-5-yl)}amine], which “Mean AC1.4” value is on record?
Answer: The value was “C (C=10-20 uM)”.

Question: How did the “Mean AC1.4” value turn out when `COc1cccc(Cc2nsc(NCC(C)c3ccc(Cl)cc3)n2)c1` (stereo not drawn) [[2-(4-chlorophenyl)propyl]{3-[(3-methoxyphenyl)methyl](1,2,4-thiadiazol-5-yl)}amine] was run?
Answer: Its value is “A (A=<1 uM)”.

Question: Which “Mean AC1.4” value does the source give for `CC(CNc1nc(Cc2ccc(F)cc2)ns1)c1ccc(Cl)cc1` (stereo not drawn) [[2-(4-chlorophenyl)propyl]{3-[(4-fluorophenyl)methyl](1,2,4-thiadiazol-5-yl)}amine] here?
Answer: Its value is “B (B=1-10 uM)”.

Question: How did the “Mean AC1.4” value turn out when `CC(C)(CNc1nc(-c2ccccn2)ns1)c1ccc(F)cc1` [[2-(4-fluorophenyl)-2-methylpropyl](3-(2-pyridyl)(1,2,4-thiadiazol-5-yl))amine] was run?
Answer: Its value is “B (B=1-10 uM)”.

Question: How did the “Mean AC1.4” value turn out when `CC(C)(CNc1nc(-c2cccnc2)ns1)c1ccc(F)cc1` [[2-(4-fluorophenyl)-2-methylpropyl](3-(3-pyridyl)(1,2,4-thiadiazol-5-yl))amine] was run?
Answer: The value was “B (B=1-10 uM)”.

Question: For `CC(C)(CNc1nc(-c2ccncc2)ns1)c1ccc(F)cc1` [[2-(4-fluorophenyl)-2-methylpropyl](3-(4-pyridyl)(1,2,4-thiadiazol-5-yl))amine], which “Mean AC1.4” value is on record?
Answer: Its value is “B (B=1-10 uM)”.

Question: How did the “Mean AC1.4” value turn out when `CC(C)(CNc1nc(N2CCOCC2)ns1)c1ccc(F)cc1` [[2-(4-fluorophenyl)-2-methylpropyl](3-morpholin-4-yl(1,2,4-thiadiazol-5-yl))amine] was run?
Answer: Its value is “D (D=>20 uM)”.

Question: Which “Mean AC1.4” value does the source give for `CC(C)(CNc1nc(-c2ccccc2)ns1)c1ccc(F)cc1` [[2-(4-fluorophenyl)-2-methylpropyl](3-phenyl(1,2,4-thiadiazol-5-yl))amine] here?
Answer: The value was “B (B=1-10 uM)”.

Question: For `CC(C)(CNc1nc(-c2cn[nH]c2)ns1)c1ccc(F)cc1` [[2-(4-fluorophenyl)-2-methylpropyl](3-pyrazol-4-yl(1,2,4-thiadiazol-5-yl))amine], which “Mean AC1.4” value is on record?
Answer: Its value is “B (B=1-10 uM)”.

Question: `C=Cc1nsc(NCC(C)(C)c2ccc(F)cc2)n1` [[2-(4-fluorophenyl)-2-methylpropyl](3-vinyl(1,2,4-thiadiazol-5-yl))amine] was tested. Which “Mean AC1.4” value did it give?
Answer: Its value is “B (B=1-10 uM)”.

Question: How did the “Mean AC1.4” value turn out when `CC(C)(CNc1ncns1)c1ccc(F)cc1` [[2-(4-fluorophenyl)-2-methylpropyl]-1,2,4-thiadiazol-5-ylamine] was run?
Answer: Its value is “B (B=1-10 uM)”.

Question: Which “Mean AC1.4” value does the source give for `Cn1cc(-c2nsc(NCC(C)(C)c3ccc(F)cc3)n2)cn1` [[2-(4-fluorophenyl)-2-methylpropyl][3-(1-methylpyrazol-4-yl)(1,2,4-thiadiazol-5-yl] here?
Answer: The value was “B (B=1-10 uM)”.

Question: With `CC(C)(CNc1nc(CCN2CCCCC2)ns1)c1ccc(F)cc1` [[2-(4-fluorophenyl)-2-methylpropyl][3-(2-piperidylethyl)(1,2,4-thiadiazol-5-yl)]amine] as the compound, how does the “Mean AC1.4” value read?
Answer: Its value is “D (D=>20 uM)”.

Question: How did the “Mean AC1.4” value turn out when `COCCCc1nsc(NCC(C)(C)c2ccc(F)cc2)n1` [[2-(4-fluorophenyl)-2-methylpropyl][3-(3-methoxypropyl)(1,2,4-thiadiazol-5-yl)]amine] was run?
Answer: Its value is “B (B=1-10 uM)”.

Question: Which “Mean AC1.4” value does the source give for `COc1cncc(-c2nsc(NCC(C)(C)c3ccc(F)cc3)n2)c1` [[2-(4-fluorophenyl)-2-methylpropyl][3-(5-methoxy(3-pyridyl))(1,2,4-thiadiazol-5-yl)]amine] here?
Answer: Its value is “B (B=1-10 uM)”.

Question: How did the “Mean AC1.4” value turn out when `COc1ccc(-c2nsc(NCC(C)(C)c3ccc(F)cc3)n2)cn1` [[2-(4-fluorophenyl)-2-methylpropyl][3-(6-methoxy(3-pyridyl))(1,2,4-thiadiazol-5-yl)]amine] was run?
Answer: Its value is “B (B=1-10 uM)”.

Question: `CC(C)(CNc1nc(CN2CCNCC2)ns1)c1ccc(F)cc1` [[2-(4-fluorophenyl)-2-methylpropyl][3-(piperazinylmethyl)(1,2,4-thiadiazol-5-yl)]amine] was tested. Which “Mean AC1.4” value did it give?
Answer: The value was “C (C=10-20 uM)”.

Question: Which “Mean AC1.4” value does the source give for `CC(C)(CNc1nc(CN2CCCCC2)ns1)c1ccc(F)cc1` [[2-(4-fluorophenyl)-2-methylpropyl][3-(piperidylmethyl)(1,2,4-thiadiazol-5-yl)]amine] here?
Answer: The value was “D (D=>20 uM)”.

Question: With `CC(C)(CNc1nc(CN2CCCC2)ns1)c1ccc(F)cc1` [[2-(4-fluorophenyl)-2-methylpropyl][3-(pyrrolidinylmethyl)(1,2,4-thiadiazol-5-yl)]amine] as the compound, how does the “Mean AC1.4” value read?
Answer: Its value is “D (D=>20 uM)”.

Question: `CN1CCN(CCc2nsc(NCC(C)(C)c3ccc(F)cc3)n2)CC1` [[2-(4-fluorophenyl)-2-methylpropyl]{3-[2-(4-methylpiperazinyl)ethyl](1,2,4-thiadiazol-5-yl)}amine] was tested. Which “Mean AC1.4” value did it give?
Answer: The value was “C (C=10-20 uM)”.

Question: How did the “Mean AC1.4” value turn out when `COCCNc1nsc(NCC(C)(C)c2ccc(F)cc2)n1` [[2-(4-fluorophenyl)-2-methylpropyl]{3-[(2-methoxyethyl)amino](1,2,4-thiadiazol-5-yl)}amine] was run?
Answer: The value was “D (D=>20 uM)”.

Question: `COc1cccc(C(C)c2nsc(N(C)CC(C)(C)c3ccc(F)cc3)n2)c1` (stereo not drawn) [[2-(4-fluorophenyl)-2-methylpropyl]{3-[(3-methoxyphenyl)ethyl](1,2,4-thiadiazol-5-yl)}methylamine] was tested. Which “Mean AC1.4” value did it give?
Answer: Its value is “D (D=>20 uM)”.

Question: For `COc1cccc(Cc2nsc(NCC(C)(C)c3ccc(F)cc3)n2)c1` [[2-(4-fluorophenyl)-2-methylpropyl]{3-[(3-methoxyphenyl)methyl](1,2,4-thiadiazol-5-yl)}amine], which “Mean AC1.4” value is on record?
Answer: The value was “A (A=<1 uM)”.

Question: With `COc1cccc(Cc2nsc(N(C)CC(C)(C)c3ccc(F)cc3)n2)c1` [[2-(4-fluorophenyl)-2-methylpropyl]{3-[(3-methoxyphenyl)methyl](1,2,4-thiadiazol-5-yl)}methylamine] as the compound, how does the “Mean AC1.4” value read?
Answer: The value was “D (D=>20 uM)”.

Question: `COc1ccc(Cc2nsc(NCC(C)(C)c3ccc(F)cc3)n2)cc1` [[2-(4-fluorophenyl)-2-methylpropyl]{3-[(4-methoxyphenyl)methyl](1,2,4-thiadiazol-5-yl)}amine] was tested. Which “Mean AC1.4” value did it give?
Answer: The value was “A (A=<1 uM)”.

Question: How did the “Mean AC1.4” value turn out when `CN1CCN(Cc2nsc(NCC(C)(C)c3ccc(F)cc3)n2)CC1` [[2-(4-fluorophenyl)-2-methylpropyl]{3-[(4-methylpiperazinyl)methyl](1,2,4-thiadiazol-5-yl)}amine] was run?
Answer: Its value is “C (C=10-20 uM)”.

Question: How did the “Mean AC1.4” value turn out when `CC(C)Nc1nsc(NCC(C)(C)c2ccc(F)cc2)n1` [[2-(4-fluorophenyl)-2-methylpropyl]{3-[(methylethyl)amino](1,2,4-thiadiazol-5-yl)}amine] was run?
Answer: The value was “C (C=10-20 uM)”.

Question: How did the “Mean AC1.4” value turn out when `COc1cccc(Cc2nsc(NCCc3ccc(F)cc3)n2)c1` [[2-(4-fluorophenyl)ethyl]{3-[(3-methoxyphenyl)methyl](1,2,4-thiadiazol-5-yl)}amine] was run?
Answer: The value was “B (B=1-10 uM)”.

Question: With `Fc1ccc(CCNc2nc(Cc3ccc(F)cc3)ns2)cc1` [[2-(4-fluorophenyl)ethyl]{3-[(4-fluorophenyl)methyl](1,2,4-thiadiazol-5-yl)}amine] as the compound, how does the “Mean AC1.4” value read?
Answer: Its value is “B (B=1-10 uM)”.

Question: For `COc1ccc(CCNc2nc(Cc3cccc(OC)c3)ns2)cc1` [[2-(4-methoxyphenyl)ethyl]{3-[(3-methoxyphenyl)methyl](1,2,4-thiadiazol-5-yl)}amine], which “Mean AC1.4” value is on record?
Answer: Its value is “D (D=>20 uM)”.

Question: How did the “Mean AC1.4” value turn out when `COc1ccc(CCNc2nc(Cc3ccc(C)cc3)ns2)cc1` [[2-(4-methoxyphenyl)ethyl]{3-[(4-methylphenyl)methyl](1,2,4-thiadiazol-5-yl)}amine] was run?
Answer: The value was “D (D=>20 uM)”.
